These results are taken from US20190136302A1, “METHODS FOR DETECTING OLIGONUCLEOTIDES IN A SAMPLE” (THE REGENTS OF THE UNIVERSITY OF CALIFORNIA, priority 2016, published 2019).

One data set has as its system Capture PRLR SMO oligo. As to the kind of experiment: ELOSA competition with PRLR SMO capture oligonucleotide and HRP-PRLR SMO. Particulars: for hybridization to Capture PRLR SMO / displacement of HRP-PRLR SMO (absorbance): PRLR SMO capture oligonucleotide at increasing concentrations, mouse sequences. Format: binding, mouse. As for the experimental part: The capture reagent was synthesized using a sequence antisense to the test oligonucleotide, along with an amino-terminus and a 12 carbon aliphatic spacer. The amino-terminus allows binding to the wells of a 96-well, polystyrene DNA-binding plate and the spacer minimizes steric hindrance during hybridization of the test oligonucleotides. The capture reagent (2 picomoles/well) was incubated in 100 μl 0.05M phosphate (pH 8.5) —1 mM EDTA at 4° C. for 24 h or longer.
(§1) After washing (3 times with 0.05M TrisHCl (pH 8)—1 mM EDTA), the plate was blocked to reduce non-specific binding (200 μl 3% bovine serum albumin—0.05M TrisHCl (pH 8)—1 mM EDTA at 37° C. for 4 h).
After washing 3 times, the test oligo and a constant concentration of horseradish peroxidase-labeled oligonucleotide (i.e., the competition oligonucleotide with a sequence the same as test oligo) was incubated with the capture reagent. The amount of competition oligonucleotide hybridized to the capture reagent is inversely proportional to the total amount of test oligonucleotide present. Incubations were in a total final volume of 100 μl in 0.05M TrisHCl (pH 7.5)—1 mM EDTA, with Test oligo (variable doses up to 1 pmole), constant HRP-Oligo (0.5-1 pmole), and a total serum volume of 10 to 25 μl. Incubations were at 37° C. for 15 h.
After washing 3 times with TBST, the competition oligonucleotide bound to the capture reagent was measured using 100 μl 0.1 mg/ml TMB—1% hydrogen peroxide. After color development, the reaction was stopped with 50 μl 1N H2SO4, and the amount of colored product was measured spectrophotometrically at A450.
For clarity, the PRLR SMO vivo-morpholino is referred to as Antimaia to distinguish it from the oligonucleotides being used for competition or capture, which are called HRP-PRLR SMO and capture PRLR SMO, respectively. […] The methods used for these experiments are described in Example 1.

Data set [1] has as its system Capture Control SMO oligo. As to the kind of experiment: ELOSA competition with Control SMO capture oligonucleotide and HRP-Control SMO. Format: binding. The note with it: test oligo 5 pmoles; HRP-Control SMO 1 pmole; Capture Control SMO 5 pmoles. As for the experimental part:
The capture reagent was synthesized using a sequence antisense to the test oligonucleotide, along with an amino-terminus and a 12 carbon aliphatic spacer. The amino-terminus allows binding to the wells of a 96-well, polystyrene DNA-binding plate and the spacer minimizes steric hindrance during hybridization of the test oligonucleotides. […]
as §1
After washing 3 times, the test oligo and a constant concentration of horseradish peroxidase-labeled oligonucleotide (i.e., the competition oligonucleotide with a sequence the same as test oligo) was incubated with the capture reagent. The amount of competition oligonucleotide hybridized to the capture reagent is inversely proportional to the total amount of test oligonucleotide present. […] Incubations were at 37° C. for 15 h.
After washing 3 times with TBST, the competition oligonucleotide bound to the capture reagent was measured using 100 μl 0.1 mg/ml TMB—1% hydrogen peroxide. After color development, the reaction was stopped with 50 μl 1N H2SO4, and the amount of colored product was measured spectrophotometrically at A450. […]

For data set [2], the system named is orthotopic models of breast cancer. Particulars: cited from earlier work.
Data set [3] has as its system prolactin receptor (PRLR). The note with it: treatment with PRLR SMO; cited from earlier work.

Take “5′-AAAAAAGACGAGATTCGATCGGAGTAAAA-3′ (SEQ ID NO: 1) (all phosphorodiamidate morpholino (PMO); vivo-morpholino: octaguanidine derivatization attached, position not given here) [Control SMO, reference compound]”: the “hybridization to Capture PRLR SMO / displacement of HRP-PRLR SMO (absorbance)” value in the data set on Capture PRLR SMO oligo was “did not hybridize”. Besides, the “competition with HRP-Control SMO for binding to the Capture Control SMO” value in data set [1] is “competed”.
Consider “5′-AAAAAGCCCTTCTATTGAAACACAGATACAAAA-3′ (SEQ ID NO: 4) (all phosphorodiamidate morpholino (PMO); vivo-morpholino: octaguanidine derivatization attached, position not given here; listed as Mus sp.) [Antimaia, vivo-morpholino splice-modulating oligomer for the prolactin receptor, phosphorodiamidate morpholino backbone and octaguanidine derivatizations]”, for which, in data set [2] (in vivo), the tolerability result is listed as “well-tolerated”. Further, the “reduction in metastatic spread” value in data set [2] (two orthotopic models of breast cancer) was 80%. Besides, the “effect on PRLR splice forms” value in data set [3] is “loss of the growth-promoting PRLR without loss of the growth-inhibiting splice form of the PRLR”. In addition, the “sensitivity of the assay” value in the data set on Capture PRLR SMO oligo (Capture PRLR SMO 2 pmoles, HRP-PRLR-SMO 0.5 pmole, presence of serum) is 0.25 pmol. In addition, the “hybridization to Capture PRLR SMO / displacement of HRP-PRLR SMO (absorbance)” value in the data set with Capture PRLR SMO oligo is “displaced HRP-PRLR SMO”. Moreover, the “competition easily detected above” value in the data set with Capture PRLR SMO oligo (capture reagent 2 pmoles, HRP-PRLR SMO in the 0.5 pmole range, presence of serum) is given as “above 0.2 pmoles”. Moreover, in data set [1], the “competition with HRP-Control SMO for binding to the Capture Control SMO” value is “essentially no effect”.
